Test results from publication PMC2706954, “Dissecting Structural and Functional Diversity of the Lantibiotic Mersacidin” (Chemistry & Biology, 2009).
Values after ≈ are worked out from the molar mass of the structure shown. Values joined by “and” are separate entries in the source; they are usually repeats but may differ in a detail not shown here. Equal entries are not always repeated. Where two headings read alike, the source gives them in different places. Where no end group is shown, it is not given here.

Tests used:
S. aureus R33 MRSA = type: cell-based, Staphylococcus aureus
Description: (§1) Antibacterial activity of fermentation samples or purified samples was determined by Mueller-Hinton Agar diffusion bioassays using M. luteus ATCC 4698 as the indicator strain. Susceptibility testing (minimum inhibitory concentration [MIC]) for all aerobic organisms, with the exception of S. pneumoniae, was performed following the recommendations of CLSI. Susceptibility testing of S. pneumoniae was performed by two-fold serial dilutions in brain-heart-infusion broth supplemented with 50 μg/ml Ca^2+. Vancomycin was used as a reference antibiotic, and plates were incubated aerobically, with shaking, for 18–20 hr at 37°C with the MIC defined as the lowest concentration of drug that prevented visible growth.

S. aureus SH1000 = type: cell-based, Staphylococcus aureus
Description: as §1

S. pneumoniae BAA-255 = type: cell-based, Streptococcus pneumoniae
Description: as §1

M. luteus ATCC4698 = type: cell-based, Micrococcus luteus
Description: as §1

E. faecalis ATCC29212 = type: cell-based
Description: as §1

E. faecium 7131121 VRE = type: cell-based
Description: as §1

E. faecium ATCC19579 = type: cell-based
Description: as §1

S. epidermidis NCTC11047 = type: cell-based
Description: as §1

[1] = tested on: panel of microorganisms (target strains); assay: MIC determination against the panel of microorganisms (target strains); type: cell-based; settings: comparison with mersacidin or with parent single mutants
Description: Partially purified fermentation samples from clones expressing highly produced variants were assayed for antimicrobial activity against M. luteus. Samples were fractionated to eliminate interfering bioactive compounds produced by the host strain and were bioassayed (see Supplemental Data available online). Selected mersacidin variants with antibacterial activity against M. luteus were produced at larger scale for quantitative studies (2 l). The mersacidin variants were purified and assayed against a panel of microorganisms to determine the MIC values.
as §1

MRSA = settings: ref Kruszewska et al., 2004; cited from earlier work
Text: (§2) Mersacidin has antibacterial activity against Gram-positive pathogens; like vancomycin, it binds to the peptidoglycan precursor lipid II ([Brotz et al., 1995; Brotz et al., 1997]).

[2] = tested on: methicillin-resistant Staphylococcus aureus (MRSA); settings: administered subcutaneously; at concentrations comparable to vancomycin; ref Chatterjee et al., 1992b; cited from earlier work
Text: as §2

[3] = CLSI recommendations, incubated aerobically with shaking 18–20 hr at 37°C, MIC = lowest concentration preventing visible growth, purified variants

Molecule | MIC S. aureus R33 MRSA (S. aureus R33 MRSA; R33) | MIC S. aureus SH1000 (S. aureus SH1000; SH1000) | MIC S. pneumoniae BAA-255 (S. pneumoniae BAA-255; BAA-255) | MIC M. luteus ATCC4698 (M. luteus ATCC4698; ATCC4698) | MIC E. faecalis ATCC29212 (E. faecalis ATCC29212; ATCC29212) | MIC E. faecium 7131121 VRE (E. faecium 7131121 VRE; 7131121 VRE) | MIC E. faecium ATCC19579 (E. faecium ATCC19579; ATCC19579) | MIC S. epidermidis NCTC11047 (S. epidermidis NCTC11047; NCTC11047) | antibacterial activity, in words, compared with parent [1] | other results
CC=C1NC(=O)C2NC(=O)[C@H](CC(C)C)NC(=O)C(NC(=O)[C@@H]3CSC(C)C(NC(=O)[C@H](Cc4ccccc4)NC(=O)C4NC(=O)[C@@H](N)CSC4C)C(=O)N[C@@H](CC(C)C)C(=O)N4CCC[C@H]4C(=O)NCC(=O)NCC(=O)NCC(=O)NCC(=O)N[C@@H](C(C)C)C(=O)N3)C(C)SC[C@H](NC(=O)[C@H](CCC(=O)O)NC1=O)C(=O)N[C@@H]([C@@H](C)CC)C(=O)NC=CSC2C (some centres unmarked) [S16Db] | 8 mg/L (≈ 4.35 µM) | 32 mg/L (≈ 17.4 µM) | 32 mg/L (≈ 17.4 µM) | 1 mg/L (≈ 0.543 µM) | 32 mg/L (≈ 17.4 µM) | 64 mg/L (≈ 34.8 µM) | 32 mg/L (≈ 17.4 µM) | 16 mg/L (≈ 8.69 µM) | – | –
C=C1NC(=O)C2NC(=O)[C@H](CC(C)C)NC(=O)C(NC(=O)[C@@H]3CSC(C)C(NC(=O)[C@H](Cc4ccccc4)NC(=O)C4NC(=O)[C@@H](N)CSC4C)C(=O)N[C@@H](CC(C)C)C(=O)N4CCC[C@H]4C(=O)NCC(=O)NCC(=O)NCC(=O)NCC(=O)N[C@@H]([C@@H](C)CC)C(=O)N3)C(C)SC[C@H](NC(=O)[C@H](CCC(=O)O)NC1=O)C(=O)N[C@@H]([C@@H](C)CC)C(=O)NC=CSC2C (some centres unmarked) [V11I] | 16 mg/L (≈ 8.69 µM) | 32 mg/L (≈ 17.4 µM) | 16 mg/L (≈ 8.69 µM) | 0.5 mg/L (≈ 0.272 µM) | 16 mg/L (≈ 8.69 µM) | 16 mg/L (≈ 8.69 µM) | 16 mg/L (≈ 8.69 µM) | 16 mg/L (≈ 8.69 µM) | – | –
F3W-L14I (CTWTLPGGGGVCTITSECIC; also: mersacidin methyllanthionine thioether bridges, not placed, C-terminal decarboxylated Cys (2-thioethenamine); UniProt P43683 49-68, looked up, variant F3W L14I) | – | – | – | – | – | – | – | – | comparable to those of the parent mutants | –
Mersacidin [reference compound] | – | – | – | – | – | – | – | – | – | MIC S. aureus R33 MRSA (S. aureus R33 MRSA; [3]): 32 mg/L; MIC S. aureus SH1000 (S. aureus SH1000; [3]): 32 mg/L; MIC S. pneumoniae BAA-255 (S. pneumoniae BAA-255; two-fold serial dilutions in brain-heart-infusion broth with 50 μg/ml Ca2+, 18–20 hr at 37°C, MIC = lowest concentration preventing visible growth): 2 mg/L; MIC M. luteus ATCC4698 (M. luteus ATCC4698; [3]): 1 mg/L and 2 mg/L; MIC E. faecalis ATCC29212 (E. faecalis ATCC29212; [3]): 64 mg/L; MIC E. faecium 7131121 VRE (E. faecium 7131121 VRE; vancomycin-resistant clinical isolate, CLSI recommendations, 18–20 hr at 37°C, MIC = lowest concentration preventing visible growth): 64 mg/L; MIC E. faecium ATCC19579 (E. faecium ATCC19579; [3]): 32 mg/L; MIC S. epidermidis NCTC11047 (S. epidermidis NCTC11047; [3]): 16 mg/L and 32 mg/L; eradication of MRSA in a mouse rhinitis model (MRSA): eradicates MRSA; cure of abscesses in rats [2]: cures; cure of systemic MRSA infections in mice [2]: cures
V11I-L14I (CTFTLPGGGGICTITSECIC; also: mersacidin methyllanthionine thioether bridges, not placed, C-terminal decarboxylated Cys (2-thioethenamine); UniProt P43683 49-68, looked up, variant V11I L14I) | – | – | – | – | – | – | – | – | comparable to those of the parent mutants | –
